{
  "source": "ChEMBL document CHEMBL4130347",
  "about": "“Molecular topology: A new strategy for antimicrobial resistance control” (2017)",
  "key": {"Staphylococcus aureus [1]": {"tested_on": "Staphylococcus aureus", "assay": "Antibacterial activity against methicillin-resistant Staphylococcus aureus ATCC 33591 by microdilution method", "type": "functional"}, "[2]": {"tested_on": "Staphylococcus epidermidis", "assay": "Antibacterial activity against Staphylococcus epidermidis ATCC 12228 by microdilution method", "type": "functional, organism-based"}, "Staphylococcus aureus [3]": {"tested_on": "Staphylococcus aureus", "assay": "Antibacterial activity against methicillin-susceptible Staphylococcus aureus ATCC 25923 by microdilution method", "type": "functional"}, "Escherichia coli": {"tested_on": "Escherichia coli", "assay": "Antibacterial activity against Escherichia coli ATCC 25922 by microdilution method", "type": "functional, organism-based"}, "Enterococcus faecalis": {"tested_on": "Enterococcus faecalis", "assay": "Antibacterial activity against Enterococcus faecalis ATCC 51299 by microdilution method", "type": "functional"}, "Staphylococcus aureus [4]": {"tested_on": "Staphylococcus aureus", "assay": "Antibacterial activity against methicillin-resistant Staphylococcus aureus ATCC 33591 assessed as decrease in levels of viable bacteria at 2 times MIC after 8 hrs by time-kill assay", "type": "functional"}, "Staphylococcus aureus [5]": {"tested_on": "Staphylococcus aureus", "assay": "Antibacterial activity against methicillin-resistant Staphylococcus aureus ATCC 33591 assessed as decrease in levels of viable bacteria at 2 times MIC after 4 hrs by time-kill assay", "type": "functional"}, "Staphylococcus aureus [6]": {"tested_on": "Staphylococcus aureus", "assay": "Antibacterial activity against methicillin-resistant Staphylococcus aureus ATCC 33591 assessed as growth inhibition after 48 hrs", "type": "functional, organism-based"}, "Staphylococcus aureus [7]": {"tested_on": "Staphylococcus aureus", "assay": "Antibacterial activity against methicillin-resistant Staphylococcus aureus ATCC 33591 assessed as decrease in levels of viable bacteria at 2 times MIC after 24 hrs by time-kill assay", "type": "functional"}, "Bacteria [8]": {"tested_on": "Bacteria", "assay": "Inhibition of bacterial RecA expressed in Escherichia coli ATCC 25922 assessed as decrease in SOS induction at 50 uM after 8 hrs in presence of 0.25 times MIC of ciprofloxacin by fluorescence assay relative to control"}, "Bacteria [9]": {"tested_on": "Bacteria", "assay": "(§1) Inhibition of bacterial RecA expressed in Escherichia coli ATCC 25922 harboring GyrA Ser83Leu mutant/ParC Ser80Arg mutant assessed as decrease in SOS induction at 50 uM after 8 hrs in presence of 0.25 times MIC of ciprofloxacin by fluorescence assay relative to control"}, "Bacteria [10]": {"tested_on": "Bacteria", "assay": "Inhibition of bacterial RecA expressed in Escherichia coli ATCC 25922 harboring GyrA Ser83Leu mutant assessed as decrease in SOS induction at 50 uM after 8 hrs in presence of 0.25 times MIC of ciprofloxacin by fluorescence assay relative to control"}, "Bacteria [11]": {"tested_on": "Bacteria", "assay": "as §1, with “Ser80Arg mutant/GyrA Asp87Asn mutant/marR deletion” for “Ser80Arg”"}, "Bacteria [12]": {"tested_on": "Bacteria", "assay": "Inhibition of bacterial RecA expressed in Escherichia coli ATCC 25922 harboring GyrA Ser83Leu mutant/ParC Ser80Arg mutant/GyrA Asp87Asn mutant assessed as decrease in SOS induction at 50 uM after 8 hrs in presence of 0.25 times MIC of ciprofloxacin by fluorescence assay relative to control"}},
  "note": "The source made the active and inactive calls. No cut-off for these calls is given here.",
  "data": [
    {"smiles": "NNc1ccc(S(=O)(=O)N2CCOCC2)cc1[N+](=O)[O-]", "values": [
      {"measurement": "MIC", "setting": "Staphylococcus aureus [1]", "value": "16 to 128", "unit": "µg/mL"},
      {"measurement": "Activity", "setting": "[2]", "value": "Active"},
      {"measurement": "MIC", "setting": "Staphylococcus aureus [3]", "value": "16 to 128", "unit": "µg/mL"},
      {"measurement": "Activity", "setting": "Escherichia coli", "value": "inactive"},
      {"measurement": "Activity", "setting": "Enterococcus faecalis", "value": "Active"}
    ]},
    {"smiles": "O=C(CCN1CCOCC1)NNC(=O)c1ccc([N+](=O)[O-])cc1[N+](=O)[O-]", "values": [
      {"measurement": "MIC", "setting": "Staphylococcus aureus [1]", "value": "16 to 128", "unit": "µg/mL"},
      {"measurement": "Activity", "setting": "[2]", "value": "Active"},
      {"measurement": "MIC", "setting": "Staphylococcus aureus [3]", "value": "16 to 128", "unit": "µg/mL"},
      {"measurement": "Activity", "setting": "Escherichia coli", "value": "inactive"},
      {"measurement": "MIC", "setting": "Enterococcus faecalis", "value": "32 to 128", "unit": "µg/mL"}
    ]},
    {"smiles": "CCN(CC)CCN1C(=O)C(O)=C(C(=O)c2ccc(OC)cc2)C1c1ccc(C)o1", "note": "(configuration not stated)", "values": [
      {"measurement": "MIC", "setting": "Staphylococcus aureus [1]", "value": "16 to 128", "unit": "µg/mL"},
      {"measurement": "Activity", "setting": "Staphylococcus aureus [4]", "value": 2.5, "unit": "deltalog10CFU/ml"},
      {"measurement": "Activity", "setting": "Staphylococcus aureus [5]", "value": 1.5, "unit": "deltalog10CFU/ml"},
      {"measurement": "Activity", "setting": "[2]", "value": "Active"},
      {"measurement": "MIC", "setting": "Staphylococcus aureus [3]", "value": "16 to 128", "unit": "µg/mL"},
      {"measurement": "Activity", "setting": "Escherichia coli", "value": "inactive"},
      {"measurement": "Activity", "setting": "Enterococcus faecalis", "value": "inactive"},
      {"measurement": "growth inhibition (GI)", "setting": "Staphylococcus aureus [6]", "value": "Dose-dependent effect"},
      {"measurement": "Activity", "setting": "Staphylococcus aureus [7]", "value": 4, "unit": "deltalog10CFU/ml"}
    ]},
    {"smiles": "COc1cc(C(=O)OCCCn2c(=O)c3c(nc(N4CCN(CCO)CC4)n3C)n(C)c2=O)cc(O)c1OC", "values": [
      {"measurement": "MIC", "setting": "Staphylococcus aureus [1]", "value": "16 to 128", "unit": "µg/mL"},
      {"measurement": "Activity", "setting": "[2]", "value": "Active"},
      {"measurement": "MIC", "setting": "Staphylococcus aureus [3]", "value": "16 to 128", "unit": "µg/mL"},
      {"measurement": "Activity", "setting": "Escherichia coli", "value": "inactive"},
      {"measurement": "Activity", "setting": "Enterococcus faecalis", "value": "Active"}
    ]},
    {"smiles": "COCCOC(=O)C1=C(C)OC(N)=C(C#N)C12C(=O)N(CC(=O)OC)c1ccccc12", "note": "(configuration not stated)", "values": [
      {"measurement": "MIC", "setting": "Staphylococcus aureus [1]", "value": "16 to 128", "unit": "µg/mL"},
      {"measurement": "Activity", "setting": "[2]", "value": "Active"},
      {"measurement": "MIC", "setting": "Staphylococcus aureus [3]", "value": "16 to 128", "unit": "µg/mL"},
      {"measurement": "Activity", "setting": "Escherichia coli", "value": "inactive"},
      {"measurement": "MIC", "setting": "Enterococcus faecalis", "value": "32 to 128", "unit": "µg/mL"}
    ]},
    {"smiles": "O=C(O)CSc1cc(NS(=O)(=O)c2ccc(Cl)cc2)c2ccccc2c1O", "values": [
      {"measurement": "inhibition", "setting": "Bacteria [8]", "value": "31 to 47", "unit": "%"},
      {"measurement": "MIC", "setting": "Staphylococcus aureus [1]", "value": "16 to 128", "unit": "µg/mL"},
      {"measurement": "inhibition", "setting": "Bacteria [9]", "value": "31 to 47", "unit": "%"},
      {"measurement": "MIC", "setting": "Staphylococcus aureus [3]", "value": "16 to 128", "unit": "µg/mL"},
      {"measurement": "Activity", "setting": "Escherichia coli", "value": "Active"},
      {"measurement": "inhibition", "setting": "Bacteria [10]", "value": "31 to 47", "unit": "%"},
      {"measurement": "inhibition", "setting": "Bacteria [11]", "value": "31 to 47", "unit": "%"},
      {"measurement": "inhibition", "setting": "Bacteria [12]", "value": "31 to 47", "unit": "%"}
    ]},
    {"smiles": "COc1cc(C(=O)OCCn2c(N3CCN(CCO)CC3)nc3c2c(=O)n(C)c(=O)n3C)cc(OC)c1OC", "values": [
      {"measurement": "MIC", "setting": "Staphylococcus aureus [1]", "value": "16 to 128", "unit": "µg/mL"},
      {"measurement": "Activity", "setting": "[2]", "value": "Active"},
      {"measurement": "MIC", "setting": "Staphylococcus aureus [3]", "value": "16 to 128", "unit": "µg/mL"},
      {"measurement": "Activity", "setting": "Escherichia coli", "value": "inactive"},
      {"measurement": "MIC", "setting": "Enterococcus faecalis", "value": "32 to 128", "unit": "µg/mL"}
    ]}
  ]
}
